Experiment [1] deals with T1, PLK1 (Homo sapiens, UniProt P53350). Description: In vitro PLK1 ELISA assay (biochemical). On the set-up: purchased Cell Signalling 7728. The method, then: (§1) Inhibition of PLK1 was measured by quantifying phosphorylation of PLK1 substrates using chemiluminescent and fluorogenic probes. The protocols for these assays are provided below.
In Vitro PLK1 ELISA Assay
1. Preparation of Assay Plates.
Costar 96-well black or white solid flat high binding plates (Fisher Scientific, Catalog No. 07-200-591) were coated with Neutravidin (Pierce, Catalog No. 31000) using the following protocol. A 0.01 mg/mL solution of Neutravidin in 1× Phosphate Buffered Saline (“PBS”, Cellgro/Mediatech, Catalog No. 21-040-CV) was added to each well (100 μL/well) and was incubated for 18-24 hours at 4° C. The plates were then washed with 1× Phosphate Buffer Saline—Tween (“PBST”, Calbiochem, Catalog No. 524653) buffer using a plate washer. The plates were treated with bovine serum albumin (“BSA”, Sigma, Catalog No. A7906) to block non-specific binding sites, by adding a 2% BSA solution in 1×PBST buffer to each well (100 μL/well) and incubating the plates for 1 hour at room temperature. The plates were then washed with 1×PBST buffer using a plate washer.
2. PLK1-Catalyzed Phosphorylation Reaction
An aqueous buffer solution A having the following composition was prepared:
20 mM HEPES (Cellgro/Mediatech, Catalog No. 25-060Ci), pH 7.2;
5 mM MgCl2 (Sigma, Catalog No. M2393);
2 mM MnCl2.4H2O (EM Biosciences, Catalog No. MX0185-2);
1 mM Dithiothreitol (“DTT”, Fluka, Catalog No. B4184).
Next, the substrate solution B was prepared by adding 2.6 μL of 10 mM ATP (Sigma, Catalog No. A7699) and 6.4 μL of the 1 mM PLK1 substrate, CHK2-derived peptide Biotin-SSLETVSTQELYSIP (custom synthesized at Anaspec) SEQ ID: No. 1, to 4691 μL of the buffer solution A. The concentration of the ATP in solution B is 5.44 μM (1.36×); the concentration of the PLK1 substrate in solution B is 1.36 μM (1.36×).
Compound solutions C of varying concentrations for each compound were prepared by dissolving each compound in dimethylsulfoxide (DMSO, Sigma, Catalog No. D2650) to varying concentrations, followed by adding 2 μL of each solution to 38 μL of the buffer solution A, thereby forming 10× compound solutions in 5% DMSO.
A PLK1 solution D was prepared by adding 8.4 μL of 100 μg/mL PLK1 (Cell Signalling, Catalog No. 7728) to 1392 μL of the buffer solution A, thereby forming 0.6 μg/mL (6×) PLK1 solution.
The aqueous 1.36× substrate solution B was added to each well (44 μL/well) resulting in binding of the substrate to the plate via biotin/neutravidin interaction. Then 10× compound solutions C for each tested compound at each tested concentration were added to each well (6 μL/well). Next, 6×PLK1 solution D was added to each well (10 μL/well).
The final concentrations of tested compounds in each well were 10 μM, 3.3 μM, 1.1 μM, 0.36 μM, 0.12 μM, 0.04 μM, 0.014 μM, and 0.005 μM.
The obtained reaction mixtures were incubated in the wells for 45 minutes at room temperature, allowing PLK1-catalyzed phosphorylation of the substrate to proceed. The plates were then washed with 1×PBST solution using a plate washer, such that the bound phosphorylated or unphosphorylated substrate remains attached to the wells upon washing.
The washed plates were developed by treating the plates with a primary antibody that is specific for the phosphorylated substrate, followed by treatment with a secondary antibody that is specific for the primary antibody, and that is capable of catalyzing a reaction that results in a chemiluminescent readout. The chemiluminescent readout was used to quantify the substrate phosphorylation, and, consequently, to determine IC50 values for PLK1 inhibition, and was measured using a luminometer (Perkin Elmer/Wallac plate reader). The plate development protocol is described below.
A mixed antibody solution E was prepared by adding 1 μL of the primary antibody, rabbit p-CHK2(T68) (Rockland, Catalog No. 401280), and 1 μL of the secondary antibody, HRP-goat anti-rabbit IgG (Jackson Immunoresearch Catalog No. 111-035-003) to 10000 μL of 0.1% BSA in 1×PBST buffer. […]

Experiment [2] deals with T1, PLK1. Description: Cellular PLK1 assay in K562 cells overexpressing CDC25C. Set-up: endogenous in cells; host or cells: K562 (human chronic myelogenous leukemia) overexpressing CDC25C, nocodazole-arrested. The class given is cell-based. The conditions noted are these: nocodazole arrested, cdc25c p-Ser198 readout. On the procedure: as §1
1. Culturing of K562 Cells
Human chronic myelogenous leukemia K562 cells (American Tissue Culture Collection) overexpressing CDC25C, were grown in Growth Medium having the following composition: Iscove Dulbecco's Modified Eagle's Medium (“Iscove DMEM”, Mediatech/Cellgro, Cat. #10-013-CV), 10% Fetal Bovine Serum (“FBS”, SAFC Biosciences, Cat. #12106-500M), and 1% penicillin/streptomycin (“pen-strep”, Mediatech/Cellgro, Cat. #30-002-CI). The cells were plated in 96 well round bottom tissue culture plates (Fisher, Costar* Cell Culture plates, Cat. #07-200-95) at 100,000 cells per 50 μL of Growth Medium per well. Nocodazole (Sigma, Cat. # M1404) was added to the growth media to arrest the cells in the G2 or M phase, at 333 nM concentration. The cells were incubated with nocodazole for 18 hours at 37° C. prior to addition of tested compounds.
2. Treatment of Cells with the Tested Compounds
Solutions of tested compounds in DMSO at different concentrations were prepared using serial dilutions. Each compound was tested at 8 concentration points, 10 μM, 3.3 μM, 1.11 μM, 0.37 μM, 0.12 μM, 0.04 μM, 0.014 μM, 0.005 μM, duplicate replicates.
Two controls were performed: “DMSO alone” control in which nocodazole and DMSO were present but no compounds were added, and “nocodazole alone” control, in which only nocodazole was present, but neither DMSO nor compounds were added.
The solutions of compounds were prepared by diluting 10 mM compound 1:1 in DMSO (5 μL 10 mM compound and 5 μL DMSO), followed by 1:3 serial dilutions of compound in DMSO performed by diluting 3 μL of higher concentration compound solution serially into 6 μL DMSO to give 3-fold dilutions. Next, 3 μL of each compound solution at each concentration was transferred to 750 μL of Growth Medium. In “DMSO alone” control 3 μL of DMSO alone was added to 750 μL of Growth Medium.
After the diluted compounds were mixed well in the Growth Medium, 50 μL of each compound solution in DMSO/Growth Medium was transferred to each well of the 96-plate containing cells in 50 μL of Growth Medium/Nocodazole.
The cells and compounds were incubated for 120 minutes at 37° C., in an atmosphere containing 5% CO2.
3. Fixation and Permeabilization of the Cells
After the cells were incubated with compounds, the cells were spun down at 1,000 rpm for 5 minutes at 4° C. and supernatants were removed by flicking the plates. Cells were then washed with 200 μl of ice cold PBS, spun down again and supernatants removed. Cells were then fixed and permeabilized by addition of 100 μL/well of Fixation and Permeabilization Solution (1× buffer provided in BD Biosciences Cytofix/Cytoperm™ Fixation/Permeabilization kit, Cat. #554714) and incubation for 20 minutes at room temperature. The fixative was then removed by centrifugation (5 minutes at 2,000 rpm), and plates were flicked to remove the fixative and washed twice, each time with 200 μL/well BD Perm/Wash buffer (10× concentrate provided in BD Biosciences Cytofix/Cytoperm™ Fixation/Permeabilization kit, Cat. #554714, 1× buffer prepared by dilution in distilled H2O).
Cells were spun down at 1,000 rpm for 5 minutes at 4° C. Supernatants were removed by flicking the plates. A solution of a primary antibody specific for cdc25cp-Ser198 was prepared by diluting Rabbit cdc25c (Ser198) antibody (Cell Signaling, #9529L) 1:50 in a Fluorescence Activated Cell Sorting (“FACS”) Buffer (2% FBS in PBS). The cell pellets were resuspended in 50 μL of the primary antibody solution. 50 μL of FACS buffer was added to unstained controls. Staining was allowed to proceed overnight at room temperature.
The plates were then washed by addition of 200 μL of FACS Buffer to each well, were centrifuged and the supernatant was removed. […]

Where [3] appears, read: ELISA, CHK2-derived peptide substrate, read-out: PLK1 IC50 (μM) biochemical assay.
Where [4] appears, read: read-out: IC50 in biochemical in vitro PLK1 ELISA assay (less than 10 μM).
Setting [5] is: read-out: IC50 in biochemical ELISA assay (less than 0.01 μM).

Where only a bound is given, the exact number is not on record here.

T1 sequence (P53350 whole entry): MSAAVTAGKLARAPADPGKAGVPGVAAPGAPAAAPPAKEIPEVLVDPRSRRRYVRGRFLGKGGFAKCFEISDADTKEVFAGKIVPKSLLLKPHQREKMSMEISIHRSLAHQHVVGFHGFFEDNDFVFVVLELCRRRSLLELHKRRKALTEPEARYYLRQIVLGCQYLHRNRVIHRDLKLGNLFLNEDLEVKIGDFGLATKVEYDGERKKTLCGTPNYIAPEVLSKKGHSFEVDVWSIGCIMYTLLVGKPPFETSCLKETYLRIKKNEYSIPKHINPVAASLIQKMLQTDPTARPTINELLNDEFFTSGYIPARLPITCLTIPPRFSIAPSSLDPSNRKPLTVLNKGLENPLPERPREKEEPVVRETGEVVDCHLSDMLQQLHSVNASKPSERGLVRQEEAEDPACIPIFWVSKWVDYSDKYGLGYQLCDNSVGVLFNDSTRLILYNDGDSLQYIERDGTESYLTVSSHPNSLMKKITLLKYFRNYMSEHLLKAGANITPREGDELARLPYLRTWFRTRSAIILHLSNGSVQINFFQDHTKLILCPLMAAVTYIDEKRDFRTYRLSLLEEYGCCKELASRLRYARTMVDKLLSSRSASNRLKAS

The term IC50 denotes the midpoint of a concentration-inhibition curve. `CN1CCN(c2cccc(Nc3ncc(F)c(Nc4ccc5c(c4)NCCO5)n3)c2)CC1` [compound 20, N4-(3,4-dihydro-2H-benzo[b][1,4]oxazin-6-yl)-5-fluoro-N2-(3-(4-methylpiperazin-1-yl)phenyl)pyrimidine-2,4-diamine]: the values for the IC50 at PLK1 [1] (setting [3]), at PLK1 [1] (setting [4]) and on PLK1 [2] were under 0.5 µM, under 10 µM and 0.5 to 5 µM, respectively.
On the same counts, the results for `CN1CCN(c2cccc(Nc3nccc(Nc4ccc5c(n4)NCCO5)n3)c2)CC1` [compound 21, N4-(3,4-dihydro-2H-pyrido[3,2-b][1,4]oxazin-6-yl)-N2-(3-(4-methylpiperazin-1-yl)phenyl)pyrimidine-2,4-diamine] are under 0.5 µM, under 10 µM and at least 10 µM.
As for `Cc1ccc(Nc2ncc(F)c(Nc3ccc4c(n3)NCCO4)n2)cc1N1CCN(C)CC1` [compound 22, N4-(3,4-dihydro-2H-pyrido[3,2-b][1,4]oxazin-6-yl)-5-fluoro-N2-(4-methyl-3-(4-methylpiperazin-1-yl)phenyl)pyrimidine-2,4-diamine], the IC50 on PLK1 [1] (setting [3]) and against PLK1 [2] was at least 10 µM each time.
In the case of `CC(C)Oc1ccc(N2CCN(C)CC2)cc1Nc1ncc(F)c(Nc2ccc3c(n2)NCCO3)n1` [compound 23, N4-(3,4-dihydro-2H-pyrido[3,2-b][1,4]oxazin-6-yl)-5-fluoro-N2-(2-isopropoxy-5-(4-methylpiperazin-1-yl)phenyl)pyrimidine-2,4-diamine], the IC50 was under 0.5 µM on PLK1 [1] (setting [3]), under 10 µM at PLK1 [1] (setting [4]) and 0.5 to 5 µM against PLK1 [2].
`CN1CCN(c2cc(Nc3ncc(F)c(Nc4ccc5c(n4)NCCO5)n3)cc(C(F)(F)F)c2)CC1` [compound 24, N4-(3,4-dihydro-2H-pyrido[3,2-b][1,4]oxazin-6-yl)-5-fluoro-N2-(3-(4-methylpiperazin-1-yl)-5-(trifluoro-methyl)phenyl)pyrimidine-2,4-diamine]: the IC50 on PLK1 [1] (setting [3]) was under 0.5 µM; on PLK1 [1] (setting [4]) it was under 10 µM; at PLK1 [2] it was at least 10 µM.
In the case of `CC(C)Oc1cc(Nc2ncc(F)c(Nc3ccc4c(n3)NC(=O)CO4)n2)cc(N2CCN(C)CC2)c1` [compound 25, 6-(5-fluoro-2-(3-isopropoxy-5-(4-methylpiperazin-1-yl)phenylamino)pyrimidin-4-ylamino)-2H-pyrido[3,2-b][1,4]oxazin-3(4H)-one], the half-maximal inhibitory concentration (IC50) is under 0.5 µM on PLK1 [1] (setting [3]), under 0.01 µM at PLK1 [1] (setting [5]), under 10 µM on PLK1 [1] (setting [4]) and under 0.5 µM at PLK1 [2].
Regarding `CC(C)Oc1cc(Nc2ncc(F)c(Nc3ccc4c(n3)NCCO4)n2)cc(N2CCN(C)CC2)c1` [compound 26, N4-(3,4-dihydro-2H-pyrido[3,2-b][1,4]oxazin-6-yl)-5-fluoro-N2-(3-isopropoxy-5-(4-methylpiperazin-1-yl)phenyl)pyrimidine-2,4-diamine], the IC50 was under 0.5 µM on PLK1 [1] (setting [3]), under 0.01 µM at PLK1 [1] (setting [5]), under 10 µM on PLK1 [1] (setting [4]) and under 0.5 µM on PLK1 [2].
For the compound `CC(C)c1ccc(N2CCN(C)CC2)cc1Nc1ncc(F)c(Nc2ccc3c(n2)NCCO3)n1` [compound 27, N4-(3,4-dihydro-2H-pyrido[3,2-b][1,4]oxazin-6-yl)-5-fluoro-N2-(2-isopropyl-5-(4-methylpiperazin-1-yl)phenyl)pyrimidine-2,4-diamine], the IC50 on PLK1 [1] (setting [3]) was under 0.5 µM; at PLK1 [1] (setting [4]), under 10 µM; against PLK1 [2], 0.5 to 5 µM.
As for `CCCN1CCOc2ccc(Nc3nc(Nc4ccc(N5CC6CC5CN6S(C)(=O)=O)c(C)c4)ncc3F)nc21` (stereo not shown) [compound 28, 5-fluoro-N2-(3-methyl-4-(5-(methylsulfonyl)-2,5-diaza-bicyclo[2.2.1]heptan-2-yl)phenyl)-N4-(4-propyl-3,4-dihydro-2H-pyrido[3,2-b][1,4]oxazin-6-yl)pyrimidine-2,4-diamine], the IC50 is 0.5 to 5 µM at PLK1 [1] (setting [3]), under 10 µM on PLK1 [1] (setting [4]) and 0.5 to 5 µM on PLK1 [2].
As for `CN1CCN(c2cc(Nc3ncc(F)c(Nc4ccc5c(n4)NC(=O)CO5)n3)cc(C(F)(F)F)c2)CC1` [compound 29, 6-(5-fluoro-2-(3-(4-methylpiperazin-1-yl)-5-(trifluoromethyl)phenyl-amino)pyrimidin-4-ylamino)-2H-pyrido[3,2-b][1,4]oxazin-3(4H)-one], the IC50 is under 0.5 µM at PLK1 [1] (setting [3]), under 10 µM on PLK1 [1] (setting [4]) and at least 10 µM against PLK1 [2].

These data come from patent publication US9040527B2, “Pyrimidinediamine kinase inhibitors” (Rigel Pharmaceuticals, Inc., priority 2008, dated 2015).
